The numbers were not newly measured in patent publication US9839630B2, “Method of preparing (+)-1,4-dihydro-7-[(3S,4S)-3-methoxy-4-(methylamino)-1-pyrrolidinyl]-4-oxo-1-(2-thiazolyl)-1,8-naphthyridine-3-carboxylic acid” (Sunesis Pharmaceuticals, Inc., priority 2008, dated 2017), which cites them from elsewhere.

The test system of series [1] is various cancer cell lines. Conditions: literature.
A further series relates to acute myeloid leukemia. Conditions: human cancer patients, clinical trials.
For another series, the system named is ovarian cancer. Conditions: human cancer patients, clinical trials.
A further series concerns xenografts. Conditions: literature.
The conditions of series [2]: data of WO 2007/146335.

As to `CN[C@H]1CN(c2ccc3c(=O)c(C(=O)O)cn(-c4nccs4)c3n2)C[C@@H]1OC` [SNS-595, (+)-1,4-dihydro-7-[(3S,4S)-3-methoxy-4-(methylamino)-1-pyrrolidinyl]-4-oxo-1-(2-thiazolyl)-1,8-naphthyridine-3-carboxylic acid], the “preclinical activity against various cancer cell lines” value in series [1] is “preclinical activity”. Moreover, in the series on acute myeloid leukemia, the “clinical activity against acute myeloid leukemia” value was “clinical activity”. In the series on ovarian cancer, the “clinical activity against ovarian cancer” value is listed as “clinical activity”. Also, in the series with xenografts, the “preclinical activity against xenografts” value is “preclinical activity”.

Take `CO[C@H]1CN(c2ccc3c(=O)c(C(=O)O)cn(-c4nccs4)c3n2)C[C@@H]1N` [N-desmethyl compound, (+)-1,4-dihydro-7-[(3S,4S)-3-methoxy-4-amino-1-pyrrolidinyl]-4-oxo-1-(2-thiazolyl)-1,8-naphthyridine-3-carboxylic acid]: in series [2], the “activity in a cytotoxicity assay” value is “active”.
